pIC50: −log10 of the molar value.
These molecules were tested against T1, JAK3 (Homo sapiens, UniProt P52333) (assay: Kinobeads assay, JAK3). Conditions: mixed Molt4/Ramos lysate, read-out: Inhibition values (IC50) JAK3.
T1 construct: endogenous in cells; host or cells: Molt4 (ATCC CRL-1582) and Ramos (ATCC CRL-1596), mixed lysate 1:2
T1 sequence (P52333 1-1124): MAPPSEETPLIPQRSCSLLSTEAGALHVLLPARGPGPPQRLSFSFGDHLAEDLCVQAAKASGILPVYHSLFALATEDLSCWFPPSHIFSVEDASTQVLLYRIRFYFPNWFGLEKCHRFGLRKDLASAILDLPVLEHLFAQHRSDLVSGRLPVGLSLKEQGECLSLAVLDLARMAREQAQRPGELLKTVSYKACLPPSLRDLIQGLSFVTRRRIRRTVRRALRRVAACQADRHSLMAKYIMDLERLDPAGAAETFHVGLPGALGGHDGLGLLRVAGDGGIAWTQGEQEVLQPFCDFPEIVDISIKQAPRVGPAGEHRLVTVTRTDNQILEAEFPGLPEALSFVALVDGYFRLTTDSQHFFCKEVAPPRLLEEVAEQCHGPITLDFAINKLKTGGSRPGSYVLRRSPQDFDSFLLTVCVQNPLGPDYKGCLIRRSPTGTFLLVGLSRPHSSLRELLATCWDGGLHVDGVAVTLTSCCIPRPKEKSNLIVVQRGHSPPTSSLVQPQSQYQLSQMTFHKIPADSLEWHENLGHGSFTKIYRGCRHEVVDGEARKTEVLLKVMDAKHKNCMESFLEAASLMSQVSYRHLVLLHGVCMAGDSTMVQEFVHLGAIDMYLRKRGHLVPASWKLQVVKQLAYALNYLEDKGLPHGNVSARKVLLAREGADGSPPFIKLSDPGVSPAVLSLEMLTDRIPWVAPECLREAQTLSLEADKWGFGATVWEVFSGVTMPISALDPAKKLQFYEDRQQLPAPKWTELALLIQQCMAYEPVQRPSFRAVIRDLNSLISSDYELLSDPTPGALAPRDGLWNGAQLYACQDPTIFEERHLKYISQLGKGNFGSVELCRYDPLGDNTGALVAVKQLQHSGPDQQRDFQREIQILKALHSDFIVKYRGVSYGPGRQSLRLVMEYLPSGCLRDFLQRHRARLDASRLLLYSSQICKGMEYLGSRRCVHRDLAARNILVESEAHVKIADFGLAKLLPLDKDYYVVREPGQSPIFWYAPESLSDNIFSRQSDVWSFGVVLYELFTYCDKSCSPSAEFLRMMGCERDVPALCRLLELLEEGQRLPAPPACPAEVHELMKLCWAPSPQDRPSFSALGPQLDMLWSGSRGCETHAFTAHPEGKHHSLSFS
Format: binding
Method in brief: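 Mixed Molt4/Ramos lysate (1:2, 10 mg/mL protein) was incubated 3 h in the cold with the immobilized aminopyrido-pyrimidine affinity matrix and compound, 9-step 1:3 dilutions. Bead-bound kinases were eluted and quantified by antibody dot blot with infrared detection. IC50s are from dose-response curves.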

SMILES | pIC50
OCCn1ccc(Nc2ncc(Cl)c(NC(CO)c3ccccc3F)n2)n1 (centres unmarked) [Compound 50] | 6.00 to 7.00
O=C([C@@H](Nc1nc(Nc2cnn(CCO)c2)ncc1Cl)c1ccccc1)N1CCCCC1 [Compound 51] | 6.00 to 7.00
NC(=O)Cn1cc(Nc2ncc(Cl)c(N[C@H](CO)c3ccccn3)n2)cn1 [Compound 81] | > 7.00
CNC(=O)Cn1cc(Nc2ncc(Cl)c(N[C@H](CCO)c3ccccc3)n2)cn1 [Compound 66] | 6.00 to 7.00
O=C([C@@H](Nc1nc(Nc2cnn(CCO)c2)ncc1Cl)c1ccccc1)N1CCCC1 [Compound 35] | 6.00 to 7.00

Second part, the molecule after the results:

pIC50 | SMILES
> 7.00 | Cn1cc(Nc2ncc(Cl)c(NC(CO)c3c(F)cccc3F)n2)cn1 (centres unmarked) [Compound 44]
> 7.00 | COc1ccccc1[C@@H](CO)Nc1nc(Nc2cnn(C)c2)ncc1Cl [Compound 74]
6.00 to 7.00 | Cn1cc(Nc2ncc(Cl)c(NC(CO)Cc3ccccc3)n2)cn1 (centres unmarked) [Compound 14]
6.00 to 7.00 | CNC(=O)[C@@H](Nc1nc(Nc2cnn(C)c2)ncc1Cl)c1ccccc1 [Compound 20]
> 7.00 | OCCCn1cc(Nc2ncc(Cl)c(NC(CO)c3ccccc3F)n2)cn1 (centres unmarked) [Compound 64]
6.00 to 7.00 | COC[C@@H](Nc1nc(Nc2cnn(C)c2)ncc1Cl)c1ccccc1 [Compound 55]

— US20140179664A1, “Heterocyclyl Pyrimidine Analogues As JAK Inhibitors” (Cellzome Limited, priority 2011, published 2014)
